Measured values: patent US5114851A, “Light activated acyl-enzymes” (Duke University, priority 1989, dated 1992)
Counter-ions that a name gives are not always drawn.

Assays:
[1] = Photolysis of model compounds and cyclization of the cis photoisomer to the coumarin (conventional spectroscopy or flash photolysis); assay type: physicochemical
Text: Preliminary to our studies of the enzyme system, we studied the photochemistry of the model compounds Ethyl-(E)-2-methoxy-4-diethylamino-α-methylcinnamate and Ethyl-(E)-2-hydroxy-4-diethylamino-α-methylcinnamate (hereinafter "DEA acyl", as this compound models DEA acyl-thrombin with ethyl in place of thrombin). Photolysis of Ethyl-(E)-2-methoxy-4-diethylamino-α-methylcinnamate with 366 nm light results in a rapid decrease in absorbance as the cis photoisomer is formed (In all photolyses reported here, except for the laser flash studies, the source lamp was a mercury 500 W high pressure lamp. The 366 nm emission was isolated by a Bausch and Lomb grating monochromator). At the photostationary state, the cis photoisomer is 60% of the mixture, and the ε of the cis compound is <40% of that of the trans at 360 nm. Photolysis for 5 minutes of DEA acyl in 98% ethanol/2% pH 7.4 Tris buffer gives a sharp decrease in the absorbance at 360 nm, followed by a slow increase in absorbance at 380 nm due to the dark formation of the 3-methyl-7-N,N-diethylamino-coumarin (hereafter "the coumarin"). The increase in the absorbance due to the coumarin is first order with kc =7.17·10^-4 s^-1. The presence of the cis isomer has been confirmed by NMR after photolysis as <0° C. […] Photolysis of trans DEA acyl in Tris buffer alone gives a clean conversion to coumarin with an isosbestic point observed at 370 nm. Thus, in Tris and using conventional spectroscopy, there is no evidence for the formation of cis DEA acyl in the conversion of the trans isomer to coumarin, but flash photolysis experiments (vide infra) indicate that the cis intermediate is formed, but is very reactive in this solvent.
No evidence for a cis acyl enzyme photoisomer is seen by conventional spectroscopy. However, flash photolysis (10 nsec) of DEA acyl or DEA acyl-thrombin in Tris buffer with 355 nm light from a Nd/Yad laser does give evidence for the cis photoisomer. For both DEA acyl and DEA acyl-thrombin, the flash results in an immediate decrease in absorbance at 380 nm, followed by a first order increase of absorbance as the coumarin forms from the cis intermediate.

thrombin = experiment: Acylation (inactivation) of thrombin monitored by chromogenic assay; assay type: biochemical; conditions: 1- to 5-fold excess of compound; thrombin 1.5 μM; pH 7.4 Tris buffer
Text: The reaction of 4-Amidinophenyl-(E)-2-hydroxy-4-diethylamino-α-methylcinnamate hydrocholoride (Compound F) with thrombin to form an acyl-thrombin (hereinafter "DEA acyl-thrombin") was monitored by chromogenic assay. See A. Turner, et al., 110 J.Am.Chem.Soc. 244 (1988); B. Blomback, Theoretical Considerations of Substrate Structures Governing Enzyme Specificity, 3 (M. Scully and V. Kakkar eds 1979)(New York: Churchill Livingston). A 1- to 5-fold excess of 4-Amidinophenyl-(E)-2-hydroxy-4-diethylamino-α-methylcinnamate with thrombin (1.5 μM) in pH 7.4 Tris buffer led to complete loss of thrombin activity in less than 1 hour.

For `CCOC(=O)/C(C)=C/c1ccc(N(CC)CC)cc1OC` [Ethyl-(E)-2-methoxy-4-diethylamino-α-methylcinnamate], the “ε of the cis compound relative to that of the trans” value ([1]; at 360 nm) was under 40%.

In the case of `CCOC(=O)/C(C)=C\c1ccc(N(CC)CC)cc1O` [cis DEA acyl], the “First Order Rate Constant (cyclization of cis photoisomer to the coumarin)” value ([1]; 2/98 ethanol/Tris pH 7.4, 23° C., flash photolysis) is reported as 1.7 ± 0.5 s⁻¹, the “increase of the rate of cyclization with solvent” value ([1]; 50/50 ethanol/Tris buffer versus 98% ethanol/2% Tris) is reported as “two orders of magnitude” and the “Half-Life of cyclization to give the coumarin” value ([1]; 50/50 ethanol/Tris pH 7.4, 23° C.) is reported as 0.118 min. The “Half-Life of cyclization to give the coumarin” value ([1]; 98/2 ethanol/Tris pH 7.4, 23° C.) was 16.1 min.

With `CCN(CC)c1ccc(/C=C(\C)C(=O)Oc2ccc(C(=N)N)cc2)c(O)c1` [Compound F, 2-Propenoic acid, 3-(2-hydroxy-4-diethylaminophenyl)-2-methyl-, 4-(aminoiminomethyl)phenyl ester,(E)-, monohydrochloride salt] the “loss of thrombin activity” value (thrombin) was “complete loss” and the “time to complete loss of thrombin activity” value (thrombin) was “less than 1 hour”.
